Data from patent publication US20250051314A1, “SMALL MOLECULE INHIBITORS OF INTERFERON GAMMA SIGNALING” (INSTITUT CURIE, priority 2021, published 2025).

Tests used:
Type in all cases: cell-based
[1] = test system: IFNγ-induced tyrosine phosphorylation of STAT1 (pSTAT1); assay: JAK/STAT signalling activation assay (pSTAT1/tSTAT1 immunoblot); details: Hela cells; for inhibition of phosphorylation of STAT, dose-response in words: different concentrations; for inhibition of phosphorylation of STAT, dose-response in words / inhibition of IFNγ-induced pSTAT1 (IFNγ-signaling), result in words: 20 min pre-incubation with IFNγ; for IC50: Homo sapiens, 1000 U/ml IFNγ pre-incubated 20 min with compound, non-linear curve fit, n=3, read-out: IC50 pSTAT1 inhibition; for inhibition of IFNγ-induced pSTAT1 (IFNγ-signaling), result in words: screening at 40 μM
Procedure: Cell culture: Hela cells were grown at 37° C. under 5% CO2 in DMEM high glucose Glutamax (Gibco, Life Technologies) complemented with 10% FBS (v/v) (Gibco, Life Technologies) and supplemented with 5 mM pyruvate (v/v) (Gibco, Life Technologies) and 1% penicillin-streptomycin (v/v) (Gibco, Life Technologies). Primary antibodies: Mouse anti-phospho-STAT1 Tyr701 (BD Transduction Laboratories, 612132, RRID: AB_399503, 1:1000 for western blot), rabbit anti-STAT1 (Cell Signaling, 9172, RRID: AB_2198300, 1:1000 for western blot), mouse anti-alpha-tubulin (Sigma, clone B512, T5168, RRID: AB_86546, 1:5000 for western blot); rabbit anti-IFN-γ ([Abcam, EPR1108, ab133566, 1:1000 for western blot). Secondary antibodies anti-mouse-Alexa488 (Invitrogen, A21202), anti-mouse-HRP (Jackson ImmunoResearch, 715-035-151) and anti-rabbit-HRP (Jackson ImmunoResearch, […]) were used at 1:5000 for western blot.
20 mM stock solution of compounds in DMSO were prepared and stored at −20° C.
Hela cells were treated 20 min at 37° C. with mixture containing 1000 U·ml^−1 IFNγ in DMEM with 0.2% BSA preincubated for 20 min at 37° C. with DMSO (as control) for JAK/STAT stimulation. For screening compounds, 40 μM compounds were pre-incubated with 1000 U·ml^−1 of IFNγ in DMEM containing 0.2% BSA for 20 min at 37° C. before adding it to Hela cells. 10-fold 7 or 5 serial dilutions from 400 μM of compounds were made in DMEM containing 1000 U·ml^−1 of IFNγ and 0.2% BSA, and incubated for 20 min before stimulating JAK/STAT for finding IC50 towards IFNγ.
Cells were lysed in sample buffer (62.5 mM Tris/HCl, […], 2% v/v SDS, 10% glycerol v/v, 40 mM dithiothreitol, and 0.03% w/v phenol red). Samples were analysed by SDS-PAGE on 4-15% Mini-PROTEAN* TGX™ Precast Gels or on 4-15% Mini-PROTEAN′ TGX™ Stain Free Gel (Bio-Rad) and immuno-blotted with the indicated primary antibodies and horseradish peroxidase- or Alexa488-conjugated secondary antibodies. […] Acquisition and quantification were performed with the ChemiDoc MP Imaging System (Bio-Rad). Phosphorylated protein over total protein ratio was determined on the same blot using horseradish peroxidase and Alexa488 signals.

Hela cells = assay: Cell viability assay (CellTiter-Blue); details: Hela cells treated for 24 h; for IC50: Homo sapiens, n=3
Procedure: Cell viability assay was carried out by plating 10,000 cells/well in 96-well plates. 3-Fold 8 serial dilutions of the compounds from 3 mM were made in DMEM. HeLa cells were treated for 24 h with the compounds of different concentrations made. In case of preincubation with IFNγ, 6000 U·ml^−1 of IFNγ per concentration of compounds were used and incubated for 20 min. According to manufacturer's protocol,
CellTiter-Blue® reagent was added after 24 h treatment and cells were incubated for 3 h before recording fluorescence intensities (λex. 560/20 nm; λem. 590/10 nm) using a Perkin Elmer Wallac 1420 Victor2 Microplate Reader.

[2] = test system: formin-mediated actin assembly; assay: In cellulo actin nucleation assay (phalloidin staining, cell area); details: Hela cells, 40 μM, 20 min
Procedure: Hela cells grown on coverslips were treated with DMEM containing 0.2% BSA and the compounds (40 μM) for 20 min at 37° C., washed with cold PBS (two times) and then fixed with 4% paraformaldehyde for 30 min at room temperature, quenched in 50 mM NH4Cl for 10 min and permeabilized with 0.05% saponin in 0.2% BSA in PBS for 20 min. Cells were incubated with 165 nM phalloidin for 1 h at room temperature. DAPI containing fluoromount-G was used to mount coverslips onto glass slide. Cell areas were measured with ImageJ software (NIH).

| SMILES | inhibition of phosphorylation of STAT, dose-response in words [1] | IC50 [1] [µM] | cytotoxicity at effective doses (Hela cells) | IC50 (Hela cells) [µM] | inhibition of IFNγ-induced pSTAT1 (IFNγ-signaling), result in words [1] | formin targeting / actin assembly (phalloidin pattern, cell area), result in words [2] |
| --- | --- | --- | --- | --- | --- | --- |
| C#Cc1ccc(C=C2C(=O)NC(=S)N(c3cccc(F)c3)C2=O)o1 [Compound 5b, 5-((5-ethynylfuran-2-yl)methylene)-1-(3-fluorophenyl)-2-thioxodihydropyrimidine-4,6(1H,5H)-dione] | dose-dependent manner in the low micromolar range | 1.05 | did not show significant cytotoxicity at effective doses | 95 |  |  |
| C#Cc1ccc(C=C2C(=O)NC(=S)N(c3cccc(Br)c3)C2=O)o1 [Compound 5a, (1-(3-bromophenyl)-5-((5-ethynylfuran-2-yl)methylene)-2-thioxodihydropyrimidine-4,6(1H,5H)-dione)] | dose-dependent manner in the low micromolar range | 1.08 | did not show significant cytotoxicity at effective doses | 331 | inhibited IFNγ-induced pSTAT1 | deprived of formin targeting |
| O=C1NC(=S)N(c2cccc(F)c2)C(=O)C1=Cc1ccc(Br)o1 [Compound 6i, 5-((5-bromofuran-2-yl)methylene)-1-(3-fluorophenyl)-2-thioxodihydropyrimidine-4,6(1H,5H)-dione] |  |  |  |  |  | inhibited either IFNγ-signaling or formins |
| C#Cc1ccc(C=C2C(=O)N(c3cccc(F)c3)C(=S)N(c3cccc(F)c3)C2=O)o1 [Compound 5k, 5-((5-ethynylfuran-2-yl)methylene)-1,3-bis(3-fluorophenyl)-2-thioxodihydropyrimidine-4,6(1H,5H)-dione] | dose-dependent manner in the low micromolar range | 5.97 | did not show significant cytotoxicity at effective doses | 95 |  |  |
| C#Cc1ccc(C=C2C(=O)N(c3cccc(Br)c3)C(=S)N(c3cccc(Br)c3)C2=O)o1 [Compound 5j, 1,3-bis(3-bromophenyl)-5-((5-ethynylfuran-2-yl)methylene)-2-thioxodihydropyrimidine-4,6(1H,5H)-dione] | dose-dependent manner in the low micromolar range | 4.63 | did not show significant cytotoxicity at effective doses | 308 | biologically active compounds |  |
| O=C1NC(=S)N(c2cccc(F)c2)C(=O)C1=Cc1ccc(Cl)o1 [Compound 6b, 5-((5-chlorofuran-2-yl)methylene)-1-(3-fluorophenyl)-2-thioxodihydropyrimidine-4,6(1H,5H)-dione] |  |  |  |  | inhibited either IFNγ-signaling or formins |  |
| O=C1NC(=S)N(c2cccc(Br)c2)C(=O)C1=Cc1ccco1 [SMIFH2, 1-(3-Bromophenyl)-5-(2-furylmethylene)-2-thioxo-hexahydropyrimidine-4,6-dione, reference compound] |  |  |  |  | capable of inhibiting IFNγ signaling |  |
| Cc1ccc(C=C2C(=O)NC(=S)N(c3cccc(F)c3)C2=O)o1 [Compound 6a, 1-(3-fluorophenyl)-5-((5-methylfuran-2-yl)methylene)-2-thioxodihydropyrimidine-4,6(1H,5H)-dione] |  |  |  |  |  | inhibited either IFNγ-signaling or formins |
| O=C1NC(=O)N(c2cccc(Br)c2)C(=O)C1=Cc1ccco1 [Compound 6l, 1-(3-bromophenyl)-5-(furan-2-ylmethylene)pyrimidine-2,4,6(1H,3H,5H)-trione] |  |  |  |  | did not show IFNγ-signaling inhibitory activity |  |
| C#Cc1ccc(C=C2C(=O)NC(=O)N(c3cccc(Br)c3)C2=O)o1 [Compound 5l, 1-(3-bromophenyl)-5-((5-ethynylfuran-2-yl)methylene)pyrimidine-2,4,6(1H,3H,5H)-trione] |  |  |  |  | retained its activity against both IFNγ-signaling and formin | retained its activity against both IFNγ-signaling and formin |
